For five molecules, Ki results are on record in BindingDB's records for doi:10.1016/j.bmcl.2006.10.063 (Astrazeneca R&D Boston, 2007).

Broadly, the Ki is a measure of affinity in units of concentration, obtained from inhibition or displacement. Low readings indicate tighter binding, high ones weaker binding.

In this experiment the target is T1, Amine oxidase [flavin-containing] A (Homo sapiens, UniProt P21397).
T1 sequence (P21397 whole entry): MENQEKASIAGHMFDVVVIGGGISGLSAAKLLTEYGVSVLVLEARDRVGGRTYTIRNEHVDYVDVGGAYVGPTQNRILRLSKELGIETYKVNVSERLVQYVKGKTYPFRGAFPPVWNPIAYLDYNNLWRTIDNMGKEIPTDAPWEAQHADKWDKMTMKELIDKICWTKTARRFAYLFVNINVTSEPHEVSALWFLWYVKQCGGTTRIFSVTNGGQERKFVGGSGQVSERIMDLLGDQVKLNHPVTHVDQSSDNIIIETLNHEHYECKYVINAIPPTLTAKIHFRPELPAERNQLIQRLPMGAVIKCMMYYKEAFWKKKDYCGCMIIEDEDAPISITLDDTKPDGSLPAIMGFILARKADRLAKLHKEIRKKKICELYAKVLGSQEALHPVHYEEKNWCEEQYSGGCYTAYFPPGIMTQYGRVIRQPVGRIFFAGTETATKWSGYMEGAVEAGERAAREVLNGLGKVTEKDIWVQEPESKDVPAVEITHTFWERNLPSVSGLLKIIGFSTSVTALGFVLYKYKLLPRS
The experiment can be described thus: Inhibition human liver MAOA activity.
On to `Cc1cn(C[C@H]2CN(c3ccc(-c4cc(C)no4)c(F)c3)C(=O)O2)nn1` [(5R)-3-(3-fluoro-4-(3-methylisoxazol-5-yl)phenyl)-5-((4-methyl-1H-1,2,3-triazol-1-yl)methyl)oxazolidin-2-one], for which the Ki was determined as 22600 nM. In turn, `Cc1cc(-c2ccc(N3C[C@H](Cn4ccnn4)OC3=O)cc2F)on1` [(5R)-5-((1H-1,2,3-triazol-1-yl)methyl)-3-(3-fluoro-4-(3-methylisoxazol-5-yl)phenyl)oxazolidin-2-one] registered a Ki of 2900 nM. With `Cc1cc(-c2ccc(N3C[C@H](CNc4ccon4)OC3=O)cc2F)on1` [(5S)-3-(3-fluoro-4-(3-methylisoxazol-5-yl)phenyl)-5-((isoxazol-3-ylamino)methyl)oxazolidin-2-one], the Ki is 420 nM. Against the preceding molecule, the Ki is about 6.9-fold lower. For `CC(=O)NC[C@H]1CN(c2ccc(-c3cc(C)no3)c(F)c2)C(=O)O1` [N-(((S)-3-(3-fluoro-4-(3-methylisoxazol-5-yl)phenyl)-2-oxooxazolidin-5-yl)methyl)acetamide] the value was 950 nM; for `CC(=O)NC[C@H]1CN(c2ccc(N3CCOCC3)c(F)c2)C(=O)O1` [Zyvox], 20000 nM.
